Results: ChEMBL document CHEMBL5149985, “Discovery of cytotoxic natural products from Red Sea sponges: Structure and synthesis” (Eur J Med Chem, 2021)

Experiments:
[1] = system: HeLa; test: Antiproliferative activity against human HeLa cells assessed as cell viability measured after 24 hrs by MTT assay; type: functional, cell-based
[2] = system: HCT-116; test: Antiproliferative activity against human HCT-116 cells assessed as cell viability measured after 24 hrs by MTT assay; type: functional, cell-based; conditions: HCT-116, 24 h
[3] = system: MDA-MB-231; test: Antimigratory activity against human MDA-MB-231 cells assessed as reduction in cell growth measured after 48 hrs by SRB assay; type: functional, cell-based; conditions: MDA-MB-231, 48 h
[4] = system: MDA-MB-231; test: Anticancer activity against human MDA-MB-231 cells assessed as cell viability measured after 24 hrs by MTT assay; type: functional, cell-based; conditions: MDA-MB-231, 24 h
[5] = system: P388; test: Anticancer activity against mouse p-388 cells assessed as cell growth inhibition incubated for 3 days; type: functional, cell-based; conditions: P388, 72 h
[6] = system: HeLa; test: Anticancer activity against human HeLa assessed as inhibition of cell growth incubated for 48 hrs by SRB assay; type: functional, cell-based
[7] = Inhibition of actin (unknown origin) polymerization incubated for 20 mins in presence of ATP by ELISA analysis; design: species or system Homo sapiens
[8] = Inhibition of actin (unknown origin) polymerization at 100 nM incubated for 20 mins in presence of ATP by ELISA analysis relative to control; conditions: Homo sapiens
[9] = system: MDA-MB-231; test: Anticancer activity against human MDA-MB-231 cells assessed as inhibition of cell growth incubated for 72 hrs by MTT assay; type: functional, cell-based; conditions: MDA-MB-231, 72 h
[10] = system: MCF7; test: Potency index, ratio of latrunculin IC50 to test compound IC50 for cytotoxicity against human MCF7 cells; type: functional
[11] = organism: Homo sapiens; test: Inhibition of actin (unknown origin) polymerization at 1 uM incubated for 20 mins in presence of ATP by ELISA analysis relative to control
[12] = system: MCF7; test: Anticancer activity against human MCF7 cells assessed as inhibition of cell growth incubated for 72 hrs by MTT assay; type: functional, cell-based; conditions: MCF7, 72 h
[13] = system: MDA-MB-231; test: Antimigratory activity against human MDA-MB-231 cells assessed as inhibition of cell migration at 10 uM incubated for 24 hrs by scratch wound healing assay relative to control; type: functional; design: scale not given: the % may be the effect or the level left
[14] = system: MDA-MB-231; test: Antimigratory activity against human MDA-MB-231 cells assessed as inhibition of cell migration at 2 uM incubated for 24 hrs by […] relative to control; type: functional; design: scale not given: the % may be the effect or the level left
[15] = system: A549; test: Anticancer activity against human A549 cells assessed as inhibition of cell growth incubated for 96 hrs; type: functional, cell-based; conditions: A549, 96 h
[16] = system: PC-3; test: Anticancer activity against human PC-3 cells assessed as inhibition of cell growth incubated for 96 hrs; type: functional, cell-based; conditions: PC-3, 96 h
[17] = system: HepG2; test: Anticancer activity against human HepG2 cells assessed as inhibition of cell growth incubated for 96 hrs; type: functional, cell-based; conditions: HepG2, 96 h
[18] = Antiproliferative activity against mouse Pheochromocytoma cells(MTT) assessed as reduction in relative cell viability incubated for 24 hrs by proliferation assay; type: functional, cell-based
[19] = Antiproliferative activity against mouse Pheochromocytoma cells(MPC) assessed as reduction in relative cell viability at 50 uM incubated for 24 hrs by proliferation assay relative to control; type: functional
[20] = Antiproliferative activity against mouse Pheochromocytoma cells(MTT) assessed as reduction in relative cell viability at 50 uM incubated for 24 hrs by proliferation assay; type: functional
[21] = Antiproliferative activity against mouse Pheochromocytoma cells(MPC) assessed as reduction in relative cell viability at 25 uM incubated for 24 hrs by proliferation assay relative to control; type: functional
[22] = Antiproliferative activity against mouse Pheochromocytoma cells(MTT) assessed as reduction in relative cell viability at 25 uM incubated for 24 hrs by proliferation assay; type: functional
[23] = system: MDA-MB-231; test: Anticancer activity against human MDA-MB-231 cells assessed as cell growth inhibition incubated for 48 hrs by MTT assay; type: functional, cell-based; conditions: MDA-MB-231, 48 h
[24] = system: T47D; test: Anticancer activity against human T47D cells assessed as cell growth inhibition incubated for 48 hrs by MTT assay; type: functional, cell-based
[25] = system: MCF7; test: Anticancer activity against human MCF7 cells assessed as cell growth inhibition incubated for 48 hrs by MTT assay; type: functional, cell-based; conditions: MCF7, 48 h
[26] = system: SK-BR-3; test: Anticancer activity against human SK-BR-3 cells assessed as cell growth inhibition incubated for 48 hrs by MTT assay; type: functional, cell-based; conditions: SK-BR-3, 48 h
[27] = system: BT-474; test: Anticancer activity against human BT-474 cells assessed as cell growth inhibition incubated for 48 hrs by MTT assay; type: functional, cell-based; conditions: BT-474, 48 h
[28] = system: HCT-116; test: Anticancer activity against human HCT-116 cells assessed as inhibition of cell growth measured after 72 hrs by MTT assay; type: functional, cell-based; conditions: HCT-116, 72 h
[29] = system: A549; test: cells; conditions: Homo sapiens, A549, 72 h
Description: Anticancer activity against human A549 cells assessed as inhibition of cell growth measured after 72 hrs by SRB assay

[30] = system: MDA-MB-231; test: cells; conditions: Homo sapiens, MDA-MB-231, 72 h
Description: Anticancer activity against human MDA-MB-231 cells assessed as inhibition of cell growth measured after 72 hrs by SRB assay

[31] = system: HT-29; test: cells; conditions: Homo sapiens, HT-29, 72 h
Description: Anticancer activity against human HT-29 cells assessed as inhibition of cell growth measured after 72 hrs by SRB assay

[32] = system: P388; test: Anticancer activity against mouse P388 cells assessed as cell growth inhibition; type: functional, cell-based
[33] = system: SK-MEL-28; test: Anticancer activity against human MEL-28 cells assessed as cell growth inhibition; type: functional, cell-based
[34] = system: HT-29; test: Anticancer activity against human HT-29 cells assessed as cell growth inhibition; type: functional, cell-based
[35] = system: A549; test: Anticancer activity against human A549 cells assessed as cell growth inhibition; type: functional, cell-based

COC1=C(Br)C[C@]2(OC=C1Br)ON=C(C(=O)NCCCOc1c(Br)cc(CCNC=C3C(=O)C=CC3=O)cc1Br)[C@@H]2O
IC50 [1]: 2100 nM | IC50 [2]: 5100 nM | IC50 [3]: 310 nM | IC50 [4]: 290 nM

CC[C@H]1CCCC[C@@]2(C[C@@H]3CC[C@@H]4[C@H](C(=O)OCCCCCCCCCCCCCCCC(=O)N(CCCN)CCCCN)[C@]5(CCC[C@@H](C)O5)NC(=[N+]34)N2)O1
IC50 [5]: 0.1 µg/mL

CCOC(=O)Cc1c(O)cc(Br)c(O)c1Br
IC50 [1]: 13300 nM | IC50 [6]: 13300 nM

C/C1=C/C(=O)O[C@@H]2C[C@@H](CC[C@H](C)/C=C\C=C\CC1)O[C@@](OCCc1ccccc1)([C@@H]1CSC(=O)N1)C2
IC50 [7]: 184 nM | inhibition [8]: 31% | IC50 [9]: 2710 nM | Ratio IC50 [10]: 4.8 | inhibition [11]: 94% | IC50 [12]: 100 nM

CCOC(=O)NCCCCNC(=O)C1=NO[C@]2(C=C(Br)C(OC)=C(Br)[C@@H]2O)C1 [SUBEREAMOLLINE A]
Activity [13]: 52% | IC50 [4]: 400 nM | Activity [14]: 38%

CC(=O)O[C@@H]1OC=C2C1[C@]1(C)C(C[C@@H]2OC(C)=O)[C@]2(C)CCC3C(C)(C)CCC[C@]3(C)C2C[C@H]1O (some centres undefined)
IC50 [15]: 27 nM | IC50 [16]: 77 nM | IC50 [17]: 41 nM

COC1=C(Br)[C@H](O)[C@@]2(C=C1Br)CC(C(=O)NCCCCNC(=O)C1=NO[C@]3(C=C(Br)C(OC)=C(Br)[C@@H]3O)C1)=NO2 [AEROTHIONIN]
EC50 [18]: 48100 nM | IC50 [1]: 29000 nM | Activity [19]: 55.1% | Activity [20]: 48.3% | Activity [21]: 83.7% | Activity [22]: 82.8%

O[C@]12CCCCCC[C@@H]3CCN4CCC[C@](O)(CCCCCC[C@@H]5CCN(CCC1)[C@H]2O5)[C@@H]4O3
IC50 [23]: 15200 nM | IC50 [24]: 46100 nM | IC50 [25]: 8500 nM | IC50 [26]: 18300 nM | IC50 [27]: 15200 nM

C/C1=C/C(=O)O[C@@H]2C[C@@H](CC[C@H](C)/C=C\C=C\CC1)O[C@@](O)([C@@H]1CSC(=O)N1CO)C2
IC50 [7]: 210 nM | inhibition [8]: 35% | IC50 [9]: 2990 nM | Ratio IC50 [10]: 4 | inhibition [11]: 90% | IC50 [12]: 120 nM

CC(/C=C/c1ccccc1)=C\[C@H](O)[C@@H]1CCC(=O)N[C@@H](CO)C(=O)NC2C[n+]3cc(n([C@@H]4O[C@H](CO)[C@H](O)[C@H](O)[C@H]4O)c3)CC(NC(=O)CCC[C@@H](C(=O)[O-])NC(=O)[C@@H](O)CNC(=O)[C@H](Cc3ccc(Br)cc3)NC(=O)[C@H]([C@@H](O)C(N)=O)NC(=O)[C@H](CC(N)=O)NC2=O)C(=O)N[C@@H]([C@@H](C)O)C(=O)N[C@@H](CO)C(=O)N[C@@H](Cc2ccccc2)C(=O)N1 (some centres undefined)
IC50 [28]: 6000 nM

COc1cccc2c1C(=O)c1c(O)c3c(c(O)c1C2=O)C[C@@](O)(C(=O)CO)C[C@@H]3O[C@H]1C[C@H](N)[C@H](O)[C@H](C)O1 [DOXORUBICIN]
IC50 [29]: 350 nM | IC50 [30]: 300 nM | IC50 [31]: 400 nM

C=C1CCC[C@@H]2[C@@](C)(CC[C@@]3(C)CCn4cnc5ncnc(c54)N3O)[C@H](C)CC[C@@]12C
IC50 [32]: 1180 nM | IC50 [33]: 1180 nM | IC50 [34]: 1180 nM | IC50 [35]: 1180 nM
